In patent US10538555B2, “Macrocyclic inhibitors of the PD-1/PD-L1 and CD80(B7-1)/PD-L1 protein/protein interactions” (BRISTOL-MYERS SQUIBB COMPANY, priority 2014, dated 2020):
Where a SMILES comes first, the peptide text is derived from it. Bridges are numbered along the chain shown (N, C = ends). [ ]: non-standard residue; d: D form. Phe(3,4,5-F3) = N[C@@H](Cc1cc(F)c(F)c(F)c1)C(=O)O; d(cisHyp) = O=C(O)[C@H]1C[C@@H](O)CN1; NMeF = CN[C@@H](Cc1ccccc1)C(=O)O; NMeNle = CCCC[C@H](NC)C(=O)O; Orn = NCCC[C@H](N)C(=O)O; Dab = NCC[C@H](N)C(=O)O; Dap = NC[C@H](N)C(=O)O

What follows are compounds tested against T1, Human PD-L1/PD-1 (Homo sapiens, UniProt Q9NZQ7) (assay: HTRF Human PD-L1/PD-1 binding assay (PD-1-Ig/PD-L1-His)). Settings: PD-L1-His 10 nM, PD-1-Ig 20 nM; class symbol; read-out: HTRF Human PD-L1/PD-1 Binding Assay IC50 Range.
T1 construct: TVMV protease cleavage site (C); made in house; host or cells: HEK293T cells
T1 sequence (Q9NZQ7 with tags, fused parts or gaps): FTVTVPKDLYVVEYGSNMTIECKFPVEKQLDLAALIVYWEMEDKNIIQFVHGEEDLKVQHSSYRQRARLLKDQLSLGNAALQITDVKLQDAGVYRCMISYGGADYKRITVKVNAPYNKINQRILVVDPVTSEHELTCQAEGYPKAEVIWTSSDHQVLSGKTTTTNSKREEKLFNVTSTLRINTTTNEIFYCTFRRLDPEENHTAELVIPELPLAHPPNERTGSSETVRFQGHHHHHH
Method in brief: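 HTRF competition using HEK293T-expressed human PD-1(25-167)-Ig at 20 nM and PD-L1(18-239)-His at 10 nM, compound incubated first with PD-L1 for 15 min, then with PD-1 for 15 min. Signal read as 665/620 nm ratio 30 min after adding Eu anti-Ig and APC anti-His antibodies.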

Row | Structure (SMILES) | IC50 [nM]
1 | CCCC[C@H]1C(=O)N2C[C@H](O)C[C@@H]2C(=O)N[C@@H](CC(=O)O)C(=O)N[C@@H](C(C)C)C(=O)N(C)[C@@H](Cc2ccccc2)C(=O)N[C@@H](CCC(=O)O)C(=O)N2C[C@H](O)C[C@@H]2C(=O)N[C@@H](Cc2c[nH]c3ccccc23)C(=O)N[C@@H](Cc2ccc(O)cc2)C(=O)N[C@@H](CC(C)C)C(=O)N[C@H](C(=O)NCC(N)=O)CSCC(=O)N[C@@H](Cc2cc(F)c(F)c(F)c2)C(=O)N(C)[C@@H](Cc2ccccc2)C(=O)N1C [Example 9330] ({CH2CO}-[Phe(3,4,5-F3)][NMeF][NMeNle][d(cisHyp)]DV[NMeF]E[d(cisHyp)]WYLCG-NH2; thioether N-13) | 10 to 99.9
2 | CCCC[C@H]1C(=O)N2C[C@H](O)C[C@@H]2C(=O)N[C@@H](CC(=O)O)C(=O)N[C@@H](C(C)C)C(=O)N(C)[C@@H](Cc2ccccc2)C(=O)N[C@@H](CCC(=O)O)C(=O)N2C[C@H](O)C[C@@H]2C(=O)N[C@@H](Cc2c[nH]c3ccccc23)C(=O)N[C@@H](Cc2ccc(O)cc2)C(=O)N[C@@H](CCCCN)C(=O)N[C@H](C(=O)NCC(N)=O)CSCC(=O)N[C@@H](Cc2cc(F)c(F)c(F)c2)C(=O)N(C)[C@@H](Cc2ccccc2)C(=O)N1C [Example 9331] ({CH2CO}-[Phe(3,4,5-F3)][NMeF][NMeNle][d(cisHyp)]DV[NMeF]E[d(cisHyp)]WYKCG-NH2; thioether N-13) | 1 to 9.9
3 | CCCC[C@H]1C(=O)N2C[C@H](O)C[C@@H]2C(=O)N[C@@H](CC(=O)O)C(=O)N[C@@H](C(C)C)C(=O)N(C)[C@@H](Cc2ccccc2)C(=O)N[C@@H](CCC(=O)O)C(=O)N2C[C@H](O)C[C@@H]2C(=O)N[C@@H](Cc2c[nH]c3ccccc23)C(=O)N[C@@H](Cc2ccc(O)cc2)C(=O)N[C@@H](CCCN)C(=O)N[C@H](C(=O)NCC(N)=O)CSCC(=O)N[C@@H](Cc2cc(F)c(F)c(F)c2)C(=O)N(C)[C@@H](Cc2ccccc2)C(=O)N1C [Example 9332] ({CH2CO}-[Phe(3,4,5-F3)][NMeF][NMeNle][d(cisHyp)]DV[NMeF]E[d(cisHyp)]WY[Orn]CG-NH2; thioether N-13) | 10 to 99.9
4 | CCCC[C@H]1C(=O)N2C[C@H](O)C[C@@H]2C(=O)N[C@@H](CC(=O)O)C(=O)N[C@@H](C(C)C)C(=O)N(C)[C@@H](Cc2ccccc2)C(=O)N[C@@H](CCC(=O)O)C(=O)N2C[C@H](O)C[C@@H]2C(=O)N[C@@H](Cc2c[nH]c3ccccc23)C(=O)N[C@@H](Cc2ccc(O)cc2)C(=O)N[C@@H](CCN)C(=O)N[C@H](C(=O)NCC(N)=O)CSCC(=O)N[C@@H](Cc2cc(F)c(F)c(F)c2)C(=O)N(C)[C@@H](Cc2ccccc2)C(=O)N1C [Example 9333] ({CH2CO}-[Phe(3,4,5-F3)][NMeF][NMeNle][d(cisHyp)]DV[NMeF]E[d(cisHyp)]WY[Dab]CG-NH2; thioether N-13) | 10 to 99.9
5 | CCCC[C@H]1C(=O)N2C[C@H](O)C[C@@H]2C(=O)N[C@@H](CC(=O)O)C(=O)N[C@@H](C(C)C)C(=O)N(C)[C@@H](Cc2ccccc2)C(=O)N[C@@H](CCC(=O)O)C(=O)N2C[C@H](O)C[C@@H]2C(=O)N[C@@H](Cc2c[nH]c3ccccc23)C(=O)N[C@@H](Cc2ccc(O)cc2)C(=O)N[C@@H](CN)C(=O)N[C@H](C(=O)NCC(N)=O)CSCC(=O)N[C@@H](Cc2cc(F)c(F)c(F)c2)C(=O)N(C)[C@@H](Cc2ccccc2)C(=O)N1C [Example 9334] ({CH2CO}-[Phe(3,4,5-F3)][NMeF][NMeNle][d(cisHyp)]DV[NMeF]E[d(cisHyp)]WY[Dap]CG-NH2; thioether N-13) | 10 to 99.9
6 | CCCC[C@H]1C(=O)N2C[C@H](O)C[C@@H]2C(=O)N[C@@H](CC(=O)O)C(=O)N[C@@H](C(C)C)C(=O)N(C)[C@@H](Cc2ccccc2)C(=O)N[C@@H](CCC(=O)O)C(=O)N2C[C@H](O)C[C@@H]2C(=O)N[C@@H](Cc2c[nH]c3ccccc23)C(=O)N[C@@H](Cc2ccc(O)cc2)C(=O)N[C@@H](CCC(=O)O)C(=O)N[C@H](C(=O)NCC(N)=O)CSCC(=O)N[C@@H](Cc2cc(F)c(F)c(F)c2)C(=O)N(C)[C@@H](Cc2ccccc2)C(=O)N1C [Example 9335] ({CH2CO}-[Phe(3,4,5-F3)][NMeF][NMeNle][d(cisHyp)]DV[NMeF]E[d(cisHyp)]WYECG-NH2; thioether N-13) | 10 to 99.9
7 | CCCC[C@H]1C(=O)N2C[C@H](O)C[C@@H]2C(=O)N[C@@H](CC(=O)O)C(=O)N[C@@H](C(C)C)C(=O)N(C)[C@@H](Cc2ccccc2)C(=O)N[C@@H](CCC(=O)O)C(=O)N2C[C@H](O)C[C@@H]2C(=O)N[C@@H](Cc2c[nH]c3ccccc23)C(=O)N[C@@H](Cc2ccc(O)cc2)C(=O)N[C@@H](CC(=O)O)C(=O)N[C@H](C(=O)NCC(N)=O)CSCC(=O)N[C@@H](Cc2cc(F)c(F)c(F)c2)C(=O)N(C)[C@@H](Cc2ccccc2)C(=O)N1C [Example 9336] ({CH2CO}-[Phe(3,4,5-F3)][NMeF][NMeNle][d(cisHyp)]DV[NMeF]E[d(cisHyp)]WYDCG-NH2; thioether N-13) | 10 to 99.9
8 | CCCC[C@H]1C(=O)N2C[C@H](O)C[C@@H]2C(=O)N[C@@H](CC(=O)O)C(=O)N[C@@H](C(C)C)C(=O)N(C)[C@@H](Cc2ccccc2)C(=O)N[C@@H](CCC(=O)O)C(=O)N2C[C@H](O)C[C@@H]2C(=O)N[C@@H](Cc2c[nH]c3ccccc23)C(=O)N[C@@H](Cc2ccc(O)cc2)C(=O)N[C@@H](CCC(N)=O)C(=O)N[C@H](C(=O)NCC(N)=O)CSCC(=O)N[C@@H](Cc2cc(F)c(F)c(F)c2)C(=O)N(C)[C@@H](Cc2ccccc2)C(=O)N1C [Example 9337] ({CH2CO}-[Phe(3,4,5-F3)][NMeF][NMeNle][d(cisHyp)]DV[NMeF]E[d(cisHyp)]WYQCG-NH2; thioether N-13) | 10 to 99.9
9 | CCCC[C@H]1C(=O)N2C[C@H](O)C[C@@H]2C(=O)N[C@@H](CC(=O)O)C(=O)N[C@@H](C(C)C)C(=O)N(C)[C@@H](Cc2ccccc2)C(=O)N[C@@H](CCC(=O)O)C(=O)N2C[C@H](O)C[C@@H]2C(=O)N[C@@H](Cc2c[nH]c3ccccc23)C(=O)N[C@@H](Cc2ccc(O)cc2)C(=O)N[C@@H](CC(N)=O)C(=O)N[C@H](C(=O)NCC(N)=O)CSCC(=O)N[C@@H](Cc2cc(F)c(F)c(F)c2)C(=O)N(C)[C@@H](Cc2ccccc2)C(=O)N1C [Example 9338] ({CH2CO}-[Phe(3,4,5-F3)][NMeF][NMeNle][d(cisHyp)]DV[NMeF]E[d(cisHyp)]WYNCG-NH2; thioether N-13) | 1 to 9.9
10 | CCCC[C@H]1C(=O)N2C[C@H](O)C[C@@H]2C(=O)N[C@@H](CC(=O)O)C(=O)N[C@@H](C(C)C)C(=O)N(C)[C@@H](Cc2ccccc2)C(=O)N[C@@H](CC(=O)O)C(=O)N2C[C@H](O)C[C@@H]2C(=O)N[C@@H](Cc2c[nH]c3ccccc23)C(=O)N[C@@H](Cc2ccc(O)cc2)C(=O)N[C@@H](CCCCN)C(=O)N[C@H](C(=O)NCC(N)=O)CSCC(=O)N[C@@H](Cc2cc(F)c(F)c(F)c2)C(=O)N(C)[C@@H](Cc2ccccc2)C(=O)N1C [Example 9345] ({CH2CO}-[Phe(3,4,5-F3)][NMeF][NMeNle][d(cisHyp)]DV[NMeF]D[d(cisHyp)]WYKCG-NH2; thioether N-13) | 1 to 9.9
11 | CCCC[C@H]1C(=O)N2C[C@H](O)C[C@@H]2C(=O)N[C@@H](CC(=O)O)C(=O)N[C@@H](C(C)C)C(=O)N(C)[C@@H](Cc2ccccc2)C(=O)N[C@@H](CC(=O)O)C(=O)N2C[C@H](O)C[C@@H]2C(=O)N[C@@H](Cc2c[nH]c3ccccc23)C(=O)N[C@@H](Cc2ccc(O)cc2)C(=O)N[C@@H](CCCN)C(=O)N[C@H](C(=O)NCC(N)=O)CSCC(=O)N[C@@H](Cc2cc(F)c(F)c(F)c2)C(=O)N(C)[C@@H](Cc2ccccc2)C(=O)N1C [Example 9346] ({CH2CO}-[Phe(3,4,5-F3)][NMeF][NMeNle][d(cisHyp)]DV[NMeF]D[d(cisHyp)]WY[Orn]CG-NH2; thioether N-13) | 1 to 9.9
12 | CCCC[C@H]1C(=O)N2C[C@H](O)C[C@@H]2C(=O)N[C@@H](CC(=O)O)C(=O)N[C@@H](C(C)C)C(=O)N(C)[C@@H](Cc2ccccc2)C(=O)N[C@@H](CC(=O)O)C(=O)N2C[C@H](O)C[C@@H]2C(=O)N[C@@H](Cc2c[nH]c3ccccc23)C(=O)N[C@@H](Cc2ccc(O)cc2)C(=O)N[C@@H](CN)C(=O)N[C@H](C(=O)NCC(N)=O)CSCC(=O)N[C@@H](Cc2cc(F)c(F)c(F)c2)C(=O)N(C)[C@@H](Cc2ccccc2)C(=O)N1C [Example 9348] ({CH2CO}-[Phe(3,4,5-F3)][NMeF][NMeNle][d(cisHyp)]DV[NMeF]D[d(cisHyp)]WY[Dap]CG-NH2; thioether N-13) | 10 to 99.9
13 | CCCC[C@H]1C(=O)N2C[C@H](O)C[C@@H]2C(=O)N[C@@H](CC(=O)O)C(=O)N[C@@H](C(C)C)C(=O)N(C)[C@@H](Cc2ccccc2)C(=O)N[C@@H](CC(=O)O)C(=O)N2C[C@H](O)C[C@@H]2C(=O)N[C@@H](Cc2c[nH]c3ccccc23)C(=O)N[C@@H](Cc2ccc(O)cc2)C(=O)N[C@@H](CCC(=O)O)C(=O)N[C@H](C(=O)NCC(N)=O)CSCC(=O)N[C@@H](Cc2cc(F)c(F)c(F)c2)C(=O)N(C)[C@@H](Cc2ccccc2)C(=O)N1C [Example 9349] ({CH2CO}-[Phe(3,4,5-F3)][NMeF][NMeNle][d(cisHyp)]DV[NMeF]D[d(cisHyp)]WYECG-NH2; thioether N-13) | 10 to 99.9

Same assay, conditions: PD-L1-His 10 nM, PD-1-Ig 20 nM; read-out: HTRF Human PD-L1/PD-1 Binding Assay IC50

Row | Structure (SMILES) | IC50 [nM]
14 | CCCC[C@H]1C(=O)N2C[C@H](O)C[C@@H]2C(=O)N[C@@H](CC(=O)O)C(=O)N[C@@H](C(C)C)C(=O)N(C)[C@@H](Cc2ccccc2)C(=O)N[C@@H](CC(=O)O)C(=O)N2C[C@H](O)C[C@@H]2C(=O)N[C@@H](Cc2c[nH]c3ccccc23)C(=O)N[C@@H](Cc2ccc(O)cc2)C(=O)N[C@@H](CCN)C(=O)N[C@H](C(=O)NCC(N)=O)CSCC(=O)N[C@@H](Cc2cc(F)c(F)c(F)c2)C(=O)N(C)[C@@H](Cc2ccccc2)C(=O)N1C [Example 9347] ({CH2CO}-[Phe(3,4,5-F3)][NMeF][NMeNle][d(cisHyp)]DV[NMeF]D[d(cisHyp)]WY[Dab]CG-NH2; thioether N-13) | 10.9
